Results from paper PMC13233820, “Recruitment of Mre11 to recombination sites during meiosis” (Nature Communications, 2026).

How the values were obtained:
[1] = molecular target: T1, Smt3 (Saccharomyces cerevisiae, UniProt Q12306); test: Isothermal titration calorimetry, SIM3 peptides on Smt3; type: binding; conditions: 2 mM peptide in syringe, 20 mM NaPi 100 mM NaCl pH 7.5, 10% DMSO, 25 °C
T1 construct: 6xHis (C); made in house; host or cells: E. coli BL21 (DE3)pLysS
Description: The syringe contained 2 mM of peptide, while the cell held 150 µM or 300 µM of protein. […] For the ITC titrations, equal amounts of DMSO (10%) were included in both compartments to minimize the heat of dilution. Each titration consisted of a first injection of 0.4 µL, followed by 12-13 injections of 2 µL peptide into the cell, separated by intervals of 120 s. The first injection was discarded during the analysis of the data. The wild-type peptide titration on Smt3 was performed in duplicate. The Microcal LLC ITC200 Origin software was used to fit the data to a single binding site model.

[2] = test system: U-[13C,15N] Smt3; test: NMR chemical shift perturbation, SIM3 peptides with Smt3; type: binding, Saccharomyces cerevisiae; conditions: 1.2 molar equivalents of peptide, 0.3 mM Smt3, 20 mM sodium phosphate, 20 mM NaCl pH 6.5, 298 K
Description: The samples contained 0.3–0.6 mM of U-[^13C,^15N] […] All NMR spectra were acquired at 298 K on a Bruker Avance III HD 800 MHz spectrometer, equipped with a TCI cryoprobe. The NMR data were acquired in TopSpin 3.6 (Bruker) and processed in NMRPipe v.7.5[76] and analyzed in CCPNMR v. 2.4.2[77]. Assignments of Smt3 backbone amide resonances were taken from literature[78] and verified by 3D HNCACB, HN(CO)CACB, and ^15N-edited NOESY-HSQC (mixing time 100 ms) spectra. Further assignments of methyl resonances were obtained from [^1H, ^13C] […] The assigned ^1H, ^13C and ^15N chemical shifts of the free and bound Smt3 have been deposited in the Biological Magnetic Resonance Bank (http://www.bmrb.wisc.edu/) under the accession number 53209.
The NMR binding experiments were performed by an incremental addition of wild-type or mutant SIM peptides (1.2 mM stocks in the working buffer) to 0.3 mM samples of U-[^13C,^15N] Smt3, with the spectral changes monitored in [^1H,^15N] HSQC spectra acquired at each increment and [^1H, ^13C] […] The average chemical shift perturbations (Δδavg) were calculated as Δδavg = (ΔδX^2/n + ΔδH^2/2)^0.5, where ΔδX and ΔδH are the chemical shift changes of the backbone amide nitrogens or methyl carbons (ΔδX) and protons (ΔδH) of Smt3 residues upon addition of 1.2 molar equivalents of SIM peptides, and n = 50 or 9 for the backbone amide and methyl groups, respectively.

T1 sequence (Q12306 whole entry): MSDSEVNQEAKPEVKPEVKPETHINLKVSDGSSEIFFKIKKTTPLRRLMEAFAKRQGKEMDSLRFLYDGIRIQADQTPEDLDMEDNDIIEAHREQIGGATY

Sequence	ITC interaction with Smt3 [1]	Average backbone amide chemical shift perturbation of Smt3 (in words) [2]
ENDAIAVSTDE [mutant SIM3 peptide, SIM3 peptide with I633 and M635 mutated to alanine]	failed to interact with Smt3	
ENDIIMVSTDE [wild-type SIM3 peptide]		induced strong backbone amide chemical shift to Smt3 residues I35, F36, F37, K38, I39 and R46
